US4221811A, “Antifungal and/or antibacterial organotin compounds, and use” (priority 1977, dated 1980)

Legend:
Type in all cases: cell-based
Aspergillus niger = conditions: after three days, glucose-agar, pH~6.9-7.0
Excerpt: (§1) Antifungal activity of organotin compounds. Minimal concentra-
(§2) tion (mg/l) causing complete inhibition of visible growth (MIC;
(§3) after three days). -Test medium: glucose-agar; pH~6.9-7.0.

Cladosporium cucumerinum = conditions: after three days, glucose-agar, pH~6.9-7.0
Excerpt: as §1, §2, §3

Penicillium italicum = conditions: after three days, glucose-agar, pH~6.9-7.0
Excerpt: as §1, §2, §3

Botrytis allii = conditions: after three days, glucose-agar, pH~6.9-7.0
Excerpt: as §1, §2, §3

B. subtilis = B. subtilis (Gram-pos.); after three days; peptone-glucose agar; pH ~ 6.9-7.0
Excerpt: (§4) Antibacterial activity of organotin compounds. Minimal concentration
(§5) causing complete inhibition of visible growth (MIC; after three days).
(§6) Test medium: peptone-glucose agar; pH ~ 6.9-7.0.

E. coli = E. coli (Gram-neg.); after three days; peptone-glucose agar; pH ~ 6.9-7.0
Excerpt: as §4, §5, §6

P. fluorescens = P. fluorescens (Gram-neg.); after three days; peptone-glucose agar; pH ~ 6.9-7.0
Excerpt: as §4, §5, §6

S. lactis = S. lactis (Gram-pos.); after three days; peptone-glucose agar; pH ~ 6.9-7.0
Excerpt: as §4, §5, §6

Compound	Minimal concentration causing complete inhibition of visible growth (MIC) (Aspergillus niger) [µg/mL]	Minimal concentration causing complete inhibition of visible growth (MIC) (Cladosporium cucumerinum) [µg/mL]	Minimal concentration causing complete inhibition of visible growth (MIC) (Penicillium italicum) [µg/mL]	Minimal concentration causing complete inhibition of visible growth (MIC) (Botrytis allii) [µg/mL]	Minimal concentration causing complete inhibition of visible growth (MIC) (B. subtilis) [µg/mL]	Minimal concentration causing complete inhibition of visible growth (MIC) (E. coli) [µg/mL]	Minimal concentration causing complete inhibition of visible growth (MIC) (P. fluorescens) [µg/mL]	Minimal concentration causing complete inhibition of visible growth (MIC) (S. lactis) [µg/mL]
CCC[CH2][Sn]([CH2]CCC)([CH2]CCC)[CH2]CCN [Bu3 Sn(CH2)3 NH2]	20	5	2	–	–	–	–	–
CCCC[CH2][Sn]([CH2]CCCC)([CH2]CCCC)[CH2]CC[N+](C)(C)C.[I-] [Pent3 Sn(CH2)3 NMe3 I]	20	20	20	≤ 10	–	–	–	–
C[N+](C)(C)CC[CH2][Sn]([c]1ccccc1)([c]1ccccc1)[c]1ccccc1.[I-] [Ph3 Sn(CH2)3 NMe3 I]	> 500	500	200	20	10	1000	1000	10
CCC[CH2][Sn]([CH2]CCC)([CH2]CCC)[CH2]CC(N)=O [Bu3 Sn(CH2)2 CONH2]	≤ 20	≤ 10	≤ 10	≤ 10	3	> 1000	300	10
CCC[CH2][Sn]([CH3])([CH2]CCC)[CH2]CCNCCCN(C)C [MeBu2 Sn(CH2)3 NH(CH2)3 NMe2, N-[3-(methyldibutylstannyl)propyl-N', N'-dimethyltrimethylene]diamine]	50	50	≤ 10	≤ 10	10	10	10	10
CCC[CH2][Sn]([CH2]CCC)([CH2]CCN(C)C)[CH2]CCN(C)C [Bu2 Sn[(CH2)3 NMe2]2]	> 500	500	100	50	100	100	300	100
O=C([CH2][Sn]([c]1ccccc1)([c]1ccccc1)[c]1ccccc1)[O][Sn]([c]1ccccc1)([c]1ccccc1)[c]1ccccc1 [Ph3 SnCH2 COOSnPh3]	≤ 10	–	≤ 10	≤ 10	–	–	–	–
CCC[CH2][Sn]([CH2]CCC)([CH2]CCC)[CH2]CCN(C)C.Cl [Bu3 Sn(CH2)3 NMe2 . HCl]	5	5	5	5	10	300	300	10
CCC[CH2][Sn]([CH2]CCC)([CH2]CC[N+](C)(C)C)[CH2]CC[N+](C)(C)C.[I-].[I-] [Bu2 Sn[(CH2)3 NMe3 I]2, Bis(trimethylammoniopropyl)dibutyltin diiodide]	> 500	> 500	200	200	300	> 1000	> 1000	300
CCC[CH2][Sn]([CH2]CCC)([CH2]CCC)[CH2]CCOC(C)=O [Bu3 Sn(CH2)3 OCOCH3]	50	20	20	50	100	> 1000	300	100
CCC[CH2][Sn]([CH2]C#N)([CH2]CCC)[CH2]CCC [Bu3 SnCH2 CN]	1	–	5	20	–	–	–	–
CC[CH2][Sn]([CH2]CC)([CH2]CC)[CH2]CCNCCCN(C)C [Pr3 Sn(CH2)3 NH(CH2)3 NMe2, N-[3-(tripropylstannyl)propyl-N', N'-dimethyltrimethylene]diamine]	10	≤ 10	≤ 10	≤ 10	10	10	10	10
CCC[CH2][Sn]([CH2]CCC)([CH2]CCC)[CH2]CCCN [Bu3 Sn(CH2)4 NH2]	–	–	–	–	3	300	300	3
CCC[CH2][Sn]([CH2]CCC)([CH2]CCC)[CH2]CCO [Bu3 Sn(CH2)3 OH]	100	100	100	50	1000	> 1000	> 1000	300
CCC[CH2][Sn]([CH2]CCC)([CH2]CCC)[CH2]CC[N+](C)(C)C.[I-] [Bu3 Sn(CH2)3 NMe3 I]	50	20	50	≤ 10	≤ 1	30	300	≤ 1
CCC[CH2][Sn]([CH2]CCC)([CH2]CCC)[CH2]CCC [Bu4 Sn, reference compound]	> 500	> 500	> 500	> 500	> 500	> 500	> 500	> 500
CC[N+](C)(CC)CC[CH2][Sn]([c]1ccccc1)([c]1ccccc1)[c]1ccccc1.[I-] [Ph3 Sn(CH2)3 NEt2 MeI]	> 1000	–	500	50	–	–	–	–
CCC[CH2][Sn]([CH2]CCC)([CH2]CCC)[O]C(C)=O [Bu3 SnOAc, reference compound]	1	1	0.5	0.5	2	> 500	100	5
